The text below walks through data of ChEMBL document CHEMBL5537137, “Design, synthesis and biological evaluation of biaryl amide derivatives against SARS-CoV-2 with dual-target mechanism” (Eur J Med Chem, 2024).

Data set [1] is described as follows: Cytotoxicity against human NCI-H460 cells incubated for 72 hrs by CCK-8 assay.
Data set [2] deals with Human coronavirus OC43. The data set is described as follows: microbe, parasite or virus in culture. Conditions: Betacoronavirus 1, VR-1558, NCI-H460, 72 h.
Description: Antiviral activity against HCoV-OC43 VR-1558 infected in human NCI-H460 cells assessed as inhibition of viral growth incubated for 72 hrs by CCK-8 assay
The nature of data set [3]: in vitro. Conditions: human, NCI-H460 cells.
Description: Selectivity index, ratio of CC50 for cytotoxicity against human NCI-H460 cells to EC50 for antiviral activity against HCoV-OC43 VR-1558 infected in human NCI-H460 cells

Some results are limits rather than exact numbers.

One may read the CC50 as the concentration that lowers cell viability or growth by half. Read a low CC50 as harm at low concentration. The EC50 is the concentration at which the effect is half-maximal. Read a low EC50 as an effect from little substance. In turn, `CN1CCN(Cc2ccc(NC(=O)c3ccc(OCCCCl)c(C(F)(F)F)c3)cc2C(F)(F)F)CC1` registered a CC50 at 72 h in data set [1] of 6.2 µM. In data set [2], this molecule displayed a 50% effective concentration (EC50) of 2.94 µM. In addition, in data set [3], the selectivity ratio was 2.
The corresponding values for `CN1CCN(Cc2ccc(NC(=O)c3ccc(OCCCCl)c([N+](=O)[O-])c3)cc2C(F)(F)F)CC1` are 15 µM, 2.47 µM and 6.1.
In turn, `CN1CCN(Cc2ccc(NC(=O)c3ccc(OCCCCl)c(F)c3)cc2C(F)(F)F)CC1` showed a CC50 at 72 h in data set [1] of 13.4 µM. Besides, the EC50 in data set [2] stood at 5.34 µM. In addition, the selectivity ratio in data set [3] came to 3.
Consider `CC(C)Oc1ccc(C(=O)Nc2ccc(CN3CCN(C)CC3)c(C(F)(F)F)c2)cc1[N+](=O)[O-]`, for which the cytotoxic concentration (CC50) at 72 h in data set [1] was 19.2 µM. For the same molecule, in data set [2], a half-maximal response (EC50) required 3.54 µM. The selectivity ratio in data set [3] turned out to be 5.4.
In data set [1], `CN(C)C1CN(Cc2ccc(NC(=O)c3ccc(OCCCCl)c([N+](=O)[O-])c3)cc2C(F)(F)F)C1` displayed a cytotoxic concentration (CC50) at 72 h of 49.8 µM. The same molecule had a concentration giving a half-maximal response (EC50) in data set [2] of 8.64 µM. Also, the selectivity ratio in data set [3] came to 6.
For `CN1CCN(Cc2ccc(NC(=O)c3ccc(OCCCCl)c([N+](=O)[O-])c3)cn2)CC1`, the half-maximal cytotoxic concentration (CC50) at 72 h in data set [1] was 43.7 µM. This molecule came in with an EC50 in data set [2] of 19.2 µM. Further, the selectivity ratio in data set [3] came to 2.3.
Consider `CCC(=O)Nc1cc(C(=O)Nc2ccc(CN3CCN(C)CC3)c(C(F)(F)F)c2)ccc1OCCCCl`, for which the half-maximal cytotoxic concentration (CC50) at 72 h in data set [1] is 27.1 µM. In addition, a half-maximal response in data set [2] (EC50) required 5.74 µM. The selectivity ratio in data set [3] came out at 4.73.
For `CN1CCN(Cc2ccc(NC(=O)c3ccc(OCCCl)c([N+](=O)[O-])c3)cc2C(F)(F)F)CC1` the same measures were 13 µM, 3.73 µM and 3.5.
`O=C(Nc1ccc(CN2CC(C(=O)O)C2)c(C(F)(F)F)c1)c1ccc(OCCCCl)c([N+](=O)[O-])c1` yielded a cytotoxic concentration (CC50) at 72 h in data set [1] of more than 200 µM. Also, the 50% effective concentration (EC50) in data set [2] is more than 66.7 µM.
In data set [1], `CN(C)C1CCN(Cc2ccc(NC(=O)c3ccc(OCCCCl)c([N+](=O)[O-])c3)cc2C(F)(F)F)C1` (centres undefined) had a CC50 at 72 h of 28.2 µM. In addition, in data set [2], a half-maximal effect (EC50) was put at 9.76 µM. Also, the selectivity ratio in data set [3] was determined as 2.9.
The corresponding values for `CC1CN(Cc2ccc(NC(=O)c3ccc(OCCCCl)c([N+](=O)[O-])c3)cc2C(F)(F)F)CC(C)O1` (centres undefined) are 4.69 µM, 2.49 µM and 2.
In data set [1], `CN(C)C1CCN(Cc2ccc(NC(=O)c3ccc(OCCCCl)c([N+](=O)[O-])c3)cc2C(F)(F)F)CC1` yielded a 50% cytotoxic concentration (CC50) at 72 h of 18.5 µM. The molecule further had an EC50 in data set [2] of 3.93 µM. Further, the selectivity ratio in data set [3] was determined as 4.7.
The corresponding values for `CN1CCN(Cc2ccc(NC(=O)c3ccc(OCCCCl)c([N+](=O)[O-])c3)cc2C#N)CC1` are 136 µM, 12.1 µM and 11.2.
`CN1CCN(Cc2ccc(NC(=O)c3ccc(OCCCCl)c(S(N)(=O)=O)c3)cc2C(F)(F)F)CC1`: the half-maximal cytotoxic concentration (CC50) at 72 h in data set [1] came out at 40.4 µM. The EC50 in data set [2] was 4.11 µM. In data set [3], the selectivity ratio stood at 9.8.
The corresponding values for `CN1CCN(CCCNC(=O)C2CN(Cc3ccc(NC(=O)c4ccc(OCCCCl)c([N+](=O)[O-])c4)cc3C(F)(F)F)C2)CC1` are 59.1 µM, 18.6 µM and 3.2.
For `CN(C)C1CCN(Cc2ccc(NC(=O)c3ccc(OCC4CC4)c([N+](=O)[O-])c3)cc2C(F)(F)F)CC1` the same measures were 14.2 µM, 1.24 µM and 11.
`CN(C)C1CC(Oc2ccc(NC(=O)c3ccc(O)c([N+](=O)[O-])c3)cc2C(F)(F)F)C1` (centres undefined) registered a 50% cytotoxic concentration (CC50) at 72 h in data set [1] of 186 µM. In data set [2], this molecule returned an EC50 of 27.2 µM. For the same molecule, the selectivity ratio in data set [3] amounted to 7.
The corresponding values for `CN1CCN(Cc2ccc(NC(=O)c3ccc(OCCF)c([N+](=O)[O-])c3)cc2C(F)(F)F)CC1` are 24.5 µM, 2.64 µM and 9.
The molecule `CN(C)C1CC(Oc2ccc(NC(=O)c3ccc(OCCC(F)(F)F)c([N+](=O)[O-])c3)cc2C(F)(F)F)C1` (centres undefined) registered a CC50 at 72 h in data set [1] of 31.3 µM. For the same molecule, in data set [2], a half-maximal response (EC50) required 2.01 µM. Also, the selectivity ratio in data set [3] stood at 16.
`COc1ccc(C(=O)Nc2ccc(OC3CC(N(C)C)C3)c(C(F)(F)F)c2)cc1[N+](=O)[O-]` (centres undefined) yielded a 50% cytotoxic concentration (CC50) at 72 h in data set [1] of 139 µM. In data set [2], this molecule yielded an EC50 of 19.5 µM. Also, the selectivity ratio in data set [3] came out at 7.
For `CN1CCN(Cc2ccc(NC(=O)c3ccc(OCCCCl)c(NS(C)(=O)=O)c3)cc2C(F)(F)F)CC1` the same measures were 38.5 µM, 12.8 µM and 3.
The corresponding values for `CN(C)C1CN(Cc2ccc(NC(=O)c3ccc(OCc4cc(C(F)(F)F)cc(C(F)(F)F)c4)c([N+](=O)[O-])c3)cc2C(F)(F)F)C1` are 5.07 µM, more than 3.13 µM and less than 1.7.
The corresponding values for `CN1CCN(Cc2ccc(NC(=O)c3ccc(F)c(C(F)(F)F)c3)cc2C(F)(F)F)CC1` are 14.5 µM, 4.15 µM and 3.
In turn, `CN(C)C1CN(Cc2ccc(NC(=O)c3ccc(OCC(F)F)c([N+](=O)[O-])c3)cc2C(F)(F)F)C1` had a CC50 at 72 h in data set [1] of 34.1 µM. In addition, it took 4.51 µM to reach a half-maximal effect in data set [2] (EC50). In data set [3], the selectivity ratio worked out at 8.
Molecule `CN1CCN(Cc2ccc(NC(=O)c3ccc(OCCCCl)c(S(=O)(=O)O)c3)cc2C(F)(F)F)CC1` had a CC50 at 72 h in data set [1] of more than 200 µM. Also, the EC50 in data set [2] worked out at 36.8 µM. Further, in data set [3], the selectivity ratio worked out at 7.
Take `CN1CCN(Cc2ccc(NC(=O)c3ccc(OO)c([N+](=O)[O-])c3)cc2C(F)(F)F)CC1`: the CC50 at 72 h in data set [1] is more than 200 µM. In data set [2], this molecule returned a 50% effective concentration (EC50) of 26.2 µM. The selectivity ratio in data set [3] was more than 8.
For `CN(C)C1CC(Oc2ccc(NC(=O)c3ccc(OCCCl)c([N+](=O)[O-])c3)cc2C(F)(F)F)C1` (centres undefined) the same measures were 9.94 µM, 1.09 µM and 9.1.
For `CN(C)C1CN(Cc2ccc(NC(=O)c3ccc(OCCF)c([N+](=O)[O-])c3)cc2C(F)(F)F)C1` the same measures were 75.2 µM, 2.93 µM and 25.7.
The corresponding values for `CN(C)C1CN(Cc2ccc(NC(=O)c3ccc(OCC4CC4)c([N+](=O)[O-])c3)cc2C(F)(F)F)C1` are 14.6 µM, 1.01 µM and 14.5.
`COc1ccc(C(=O)Nc2ccc(CN3CCN(C)CC3)c(C(F)(F)F)c2)cc1S(N)(=O)=O` had a CC50 at 72 h in data set [1] of 123 µM. Further, a half-maximal effect in data set [2] (EC50) was put at 19.9 µM. Further, in data set [3], the selectivity ratio stood at 6.17.
The corresponding values for `CN(C)C1CC(Oc2ccc(NC(=O)c3ccc(OCC(F)F)c([N+](=O)[O-])c3)cc2C(F)(F)F)C1` (centres undefined) are 34.3 µM, 2.58 µM and 13.
In data set [1], `Cc1ccc(NC(=O)c2ccc(OCCCCl)c([N+](=O)[O-])c2)cc1C(F)(F)F` came in with a CC50 at 72 h of 82.4 µM. This molecule also displayed an EC50 in data set [2] of 3.83 µM. For the same molecule, in data set [3], the selectivity ratio came to 21.
Molecule `CN(C)C1CC(Oc2ccc(NC(=O)c3ccc(OCCF)c([N+](=O)[O-])c3)cc2C(F)(F)F)C1` (centres undefined) showed a CC50 at 72 h in data set [1] of 27.1 µM. Moreover, the midpoint of the response in data set [2], the EC50, lay at 1.79 µM. Besides, the selectivity ratio in data set [3] was determined as 15.
The corresponding values for `COc1ccc(C(=O)Nc2ccc(CN3CC(N(C)C)C3)c(C(F)(F)F)c2)cc1[N+](=O)[O-]` are more than 200 µM, 12.1 µM and more than 17.
The corresponding values for `CCC(=O)Nc1cc(C(=O)Nc2ccc(CN3CC(N(C)C)C3)c(C(F)(F)F)c2)ccc1OCCCCl` are 96.2 µM, 22.2 µM and 4.3.
In the case of `CN(C)C1CC(Oc2ccc(NC(=O)c3ccc(OCc4cc(C(F)(F)F)cc(C(F)(F)F)c4)c([N+](=O)[O-])c3)cc2C(F)(F)F)C1` (centres undefined), the midpoint of cytotoxicity in data set [1], the CC50 at 72 h, lay at 17 µM. In data set [2], the concentration for a half-maximal effect (EC50) turned out to be 11.7 µM. In addition, the selectivity ratio in data set [3] is 1.
In data set [1], `CC1CC(C)CN(CCCNC(=O)C2CN(Cc3ccc(NC(=O)c4ccc(OCCCCl)c([N+](=O)[O-])c4)cc3C(F)(F)F)C2)C1` (centres undefined) came in with a half-maximal cytotoxic concentration (CC50) at 72 h of 14.9 µM. Also, the concentration for a half-maximal effect (EC50) in data set [2] is 3.18 µM. Besides, the selectivity ratio in data set [3] was 4.7.
For `C=CCOc1ccc(C(=O)Nc2ccc(CN3CC(N(C)C)C3)c(C(F)(F)F)c2)cc1[N+](=O)[O-]` the same measures were 28.1 µM, 7.61 µM and 4.
As for `CN1CCN(Cc2ccc(NC(=O)c3ccc(OCCCF)c([N+](=O)[O-])c3)cc2C(F)(F)F)CC1`, the CC50 at 72 h in data set [1] was determined as 17.8 µM. In data set [2], the EC50 came to 2.45 µM. In data set [3], the selectivity ratio came out at 7.
The corresponding values for `CN(C)C1CN(Cc2ccc(NC(=O)c3ccc(OCC45CC6CC(CC(C6)C4)C5)c([N+](=O)[O-])c3)cc2C(F)(F)F)C1` are 4.63 µM, more than 3.13 µM and less than 1.7.
For `COc1ccc(C(=O)Nc2ccc(CN3CCN(C)CC3)c(C(F)(F)F)c2)cc1[N+](=O)[O-]` the same measures were 30.4 µM, 2.81 µM and 10.8.
The corresponding values for `CCC(=O)Nc1cc(C(=O)Nc2ccc(CN3CCN(C)CC3)nc2)ccc1OCCCCl` are 82.7 µM, 41.5 µM and 2.
The molecule `CN(C)C1CC(Oc2ccc(NC(=O)c3ccc(OCC4CC4)c([N+](=O)[O-])c3)cc2C(F)(F)F)C1` (centres undefined) displayed a CC50 at 72 h in data set [1] of 8.51 µM. In addition, a half-maximal response in data set [2] (EC50) required 1.24 µM. Also, in data set [3], the selectivity ratio worked out at 7.
`CCOc1ccc(C(=O)Nc2ccc(OC3CC(N(C)C)C3)c(C(F)(F)F)c2)cc1[N+](=O)[O-]` (centres undefined) returned a half-maximal cytotoxic concentration (CC50) at 72 h in data set [1] of 55.4 µM. Moreover, the EC50 in data set [2] was determined as 3.09 µM. Moreover, the selectivity ratio in data set [3] was 17.9.
For `CN(C)C1CC(Oc2ccc(NC(=O)c3ccc(OCC45CC6CC(CC(C6)C4)C5)c([N+](=O)[O-])c3)cc2C(F)(F)F)C1` (centres undefined) the same measures were 2.51 µM, more than 1.56 µM and less than 1.7.
